Measured values as given in patent US20060046972A1, “Cytotoxic nucleoside analog compound 003 for treating cancer” (Parker Hughes Institute, priority 2004, published 2006).

Test system: Lewis rats
Test: Cumulative toxicity of intraperitoneal doses in Lewis rats
Format: in vivo
Design: RBC: unit not given here
Details: for ALC / ALT / ANC / AST / Albumin / Ammonia / Amylase / BUN / CPK / Calcium / Creatinine / Mean Weight Change (g ± SEM) / Mean Weight Change [%] / Morbidity / Phosphate / RBC / Total Bilirubin / Total Protein / Toxic Organ Lesions / Triglycerides / WBC / Weight Gain / Weight Loss: day 30
Procedure: 1.2.8 Animals Female CD-1 mice (Body weight: ˜25 g; Age: 7 week old) were purchased, from Charles River Laboratories (Willmington, Mass., USA). MMTV Neu-mice [FVB/N-TgN(MMTV neu)202MUL; Jackson Laboratory, Bar Harbor, Me.] were bred to produce multiple litters. All mice were housed in microisolator cages (Lab Products, Inc., Maywood, N.Y., USA) containing autoclaved bedding in a controlled specific pathogen-free (SPF) environment (12-h light/12-h dark photoperiod, 22±1° C., 60±10% relative humidity), which is fully accredited by the USDA (United States Department of Agriculture). Adult male Lewis rats (Body weight: ˜160 g) were obtained from the specific pathogen-free (SPF) breeding facilities of Harlan Sprague Dawley (Indianapolis, Id., USA) at 14 weeks of age. All husbandry and experimental contact made with the mice and rats maintained SPF conditions. The rats were kept in microisolater cages (Allentown Caging Equipment Co., Inc., Allentown, N.J., USA) containing autoclaved food, water, and bedding. Animal studies were approved by Parker Hughes Institute Animal Care and Use Committee and all animal care procedures 1.5 conformed to the Guide for the Care and Use of Laboratory Animals (National Research Council, National Academy Press, Washington D.C. 1996, USA).
The toxicity profile of Compound 003 in CD-1 mice and Lewis rats was examined, using standard procedures as previously reported for other experimental drugs (Uckun, et al., 2003, Arzneimittelforschun. 53:357; Uckun, et al., 2002, Clin Cancer Res. 8: 1224; Uckun, et al., 2002, Antimicrob Agents Chemother. 46:3428). In brief, mice and rats were treated with intraperitoneal injections of vehicle or Compound 003 at multiple dose levels. Compound 003 was administered as a 0.2 mL (for mice) or 0.5 mL (for rats) bolus injection containing 10% DMSO as a vehicle. Animals were allowed free access to autoclaved standard pellet food and tap water throughout the experiments and monitored daily for morbidity and mortality. Animals were electively sacrificed on day 7 or day 30 to determine the toxicity of Compound 003 by examining their blood chemistry profiles, blood counts, and evaluating multiple organs for the presence of toxic lesions. Blood was collected by intracardiac puncture following anesthesia with ketamine:xylazine and immediately heparinized. The blood chemistry profiles were examined using a Synchron CX5CE Chemical Analyzer (Beckman Instruments, Inc., Fullerton, Calif., USA). Blood counts (red blood cells [RBC], white blood cells [WBC] and platelets [Plt]) were determined using a HESKA Vet ABC-Diff Hematology Analyzer (HESKA Corporation, Fort Collins, Colo., USA). Absolute neutrophil counts (ANC) and absolute lymphocyte counts (ALC) were calculated from WBC values after determining the percentages of neutrophils and lymphocytes by a manual differential count. At the time of necropsy, […] from mice (bone, bone marrow, brain, cecum, heart, kidney, large intestine, liver, lung, lymph node, ovary, pancreas, skeletal muscle, skin, small intestine, spleen, stomach, thymus, thyroid gland, urinary bladder, and uterus, as available) and 21 different tissues from rats (bone, bone marrow, brain, coagulating gland, epididymis, heart, large intestine, small intestine, kidney, liver, lung, pancreas, peripheral nerve/spinal nerve, skeletal muscle, skin, spinal cord, spleen, stomach, testes, thymus, urinary bladder) were collected within 15 minutes after sacrifice, gross pathological findings were documented, organs were preserved in 10% neutral phosphate buffered formalin, and processed for histopathological examination. For histopathologic studies, formalin fixed tissues were dehydrated and embedded in paraffin by routine methods. Glass slides with affixed 4-5 micron tissue sections were prepared and stained with Hemotoxylin and Eosin (H&E). […]

[1] = 20 mg/kg i.p. for 30 consecutive days
[2] = 40 mg/kg i.p. for 30 consecutive days
[3] = 80 mg/kg i.p. for 30 consecutive days

Structure (SMILES): COC(=O)C(C)NP(=O)(OCC1OC(n2cc(C)c(=O)[nH]c2=O)CC1N=[N+]=[N-])Oc1ccc(OC)cc1 (stereo not shown) [Compound 003, 3′-azidothymidine 5′-[p-methoxyphenylmethoxyalaninyl phosphate]]
- ALC [1]: 9.6 ± 0.0 ×10^9L
- ALT [1]: 68.0 ± 5.5 IU/L
- ANC [1]: 2.4 ± 0.0 ×10^9L
- AST [1]: 7.6 ± 1.6 IU/L
- Albumin [1]: 1.5 ± 0.0 g/dL
- Ammonia [1]: 77.2 ± 4.1 µmol/L
- Amylase [1]: 1667.1 ± 29.8 U/L
- BUN [1]: 21.8 ± 0.4 mg/dL
- CPK [1]: 546.1 ± 109.9 IU/L
- Calcium [1]: 10.9 ± 0.1 mg/dL
- Creatinine [1]: 0.6 ± 0.0 mg/dL
- Mean Weight Change (g ± SEM) [1]: 9.02 ± 1.39 g
- Mean Weight Change [%] [1]: (2.68 ± 0.41%)
- Morbidity [1]: 0/10
- Phosphate [1]: 6.2 ± 0.2 mg/dL
- RBC [1]: 10.0 ± 0.1 ×10^9
- Total Bilirubin [1]: 0.6 ± 0.1 mg/dL
- Total Protein [1]: 6.3 ± 0.1 g/dL
- Toxic Organ Lesions [1]: 0/10
- Triglycerides [1]: 87.4 ± 9.9 mg/dL
- WBC [1]: 11.9 ± 0.4 ×10^9/L
- Weight Gain [1]: 10/10
- Weight Loss [1]: 0/10
- ALC [2]: 10.7 ± 0.0 ×10^9L
- ALT [2]: 64.2 ± 1.4 IU/L
- ANC [2]: 1.9 ± 0.0 ×10^9L
- AST [2]: 6.8 ± 1.0 IU/L
- Albumin [2]: 1.6 ± 0.0 g/dL
- Ammonia [2]: 91.4 ± 8.2 µmol/L
- Amylase [2]: 1586.3 ± 31.4 U/L
- BUN [2]: 21.8 ± 0.3 mg/dL
- CPK [2]: 409.4 ± 55.3 IU/L
- Calcium [2]: 10.4 ± 0.1 mg/dL
- Creatinine [2]: 0.5 ± 0.0 mg/dL
- Mean Weight Change (g ± SEM) [2]: 9.66 ± 1.36 g
- Mean Weight Change [%] [2]: (2.85 ± 0.38%)
- Morbidity [2]: 0/10
- Phosphate [2]: 5.6 ± 0.1 mg/dL
- RBC [2]: 10.1 ± 0.1 ×10^9
- Total Bilirubin [2]: 0.6 ± 0.1 mg/dL
- Total Protein [2]: 6.1 ± 0.1 g/dL
- Toxic Organ Lesions [2]: 0/10
- Triglycerides [2]: 103.0 ± 10.7 mg/dL
- WBC [2]: 12.9 ± 0.4 ×10^9/L
- Weight Gain [2]: 10/10
- Weight Loss [2]: 0/10
- ALC [3]: 10.0 ± 0.0 ×10^9L
- ALT [3]: 62.5 ± 1.8 IU/L
- ANC [3]: 2.1 ± 0.0 ×10^9L
- AST [3]: 9.4 ± 0.7 IU/L
- Albumin [3]: 1.6 ± 0.0 g/dL
- Ammonia [3]: 92.8 ± 6.0 µmol/L
- Amylase [3]: 1658.3 ± 51.8 U/L
- BUN [3]: 22.7 ± 0.7 mg/dL
- CPK [3]: 371.0 ± 44.3 IU/L
- Calcium [3]: 10.5 ± 0.2 mg/dL
- Creatinine [3]: 0.6 ± 0.0 mg/dL
- Mean Weight Change (g ± SEM) [3]: 7.37 ± 1.70 g
- Mean Weight Change [%] [3]: (2.24 ± 0.51%)
- Morbidity [3]: 0/10
- Phosphate [3]: 5.9 ± 0.1 mg/dL
- RBC [3]: 9.8 ± 0.1 ×10^9
- Total Bilirubin [3]: 0.7 ± 0.1 mg/dL
- Total Protein [3]: 6.3 ± 0.1 g/dL
- Toxic Organ Lesions [3]: 0/10
- Triglycerides [3]: 83.4 ± 11.2 mg/dL
- WBC [3]: 12.2 ± 0.3 ×10^9/L
- Weight Gain [3]: 9/10
- Weight Loss [3]: 1/10
- postmortem gross pathology (20-80 mg/kg/day for 30 days): did not reveal any gross pathological findings
- Slight tubular degeneration, share of animals (80 and 40 mg/kg): 50%
- systemic toxicity by blood tests (day 30, 20-80 mg/kg/day): did not suggest any significant systemic toxicity
- tolerability (i.p. daily for up to 30 days, daily dose as high as 80 mg/kg, cumulative as high as 2.4 g/kg): well tolerated
